# Key:
# [1] = system: Rattus norvegicus; test: % change in blood glucose concentration after 2 hr post treatment at 100 mg/kg, po; assay type: functional; set-up: unit: %
# [2] = system: Mus musculus; test: Analgesic activity in mice using phenylquinone writhing test at 30 mg/kg, sc dose; assay type: functional; details: route subcutaneous
# [3] = system: Rattus norvegicus; test: (§1) % change in blood glucose concentration after 4 hr post treatment at 100 mg/kg, po; assay type: functional; set-up: unit: %
# [4] = system: Rattus norvegicus; test: % change in blood glucose concentration after 2 hr post treatment at 17 mg/kg, po; assay type: functional
# [5] = system: Mus musculus; test: Analgesic activity in mice using phenylquinone writhing test at 0.0075 mg/kg, sc dose; assay type: functional; details: route subcutaneous
# [6] = system: Mus musculus; test: Analgesic activity in mice using phenylquinone writhing test at 10 mg/kg, sc dose; assay type: functional; details: route subcutaneous
# [7] = system: Rattus norvegicus; test: % change in blood glucose concentration after 4 hr post treatment at 30 mg/kg, po; assay type: functional
# [8] = system: Mus musculus; test: Analgesic activity in mice using phenylquinone writhing test at 10 mg/kg, sc dose. 2 mg/kg Noxolone was prior to compound injection; assay type: functional
# [9] = system: Rattus norvegicus; test: Inhibitory against carrageenan induced paw edema in rat at 128 mg/kg, sc dose after 3h; assay type: functional; details: route subcutaneous
# [10] = system: Mus musculus; test: Analgesic activity in mice using phenylquinone writhing test at 14.5 mg/kg, sc dose; assay type: functional; details: route subcutaneous
# [11] = system: Rattus norvegicus; test: as §1; assay type: functional
# [12] = system: Rattus norvegicus; test: Inhibitory against carrageenan induced paw edema in rat at 128 mg/kg, sc dose after 5 hr; assay type: functional; details: route subcutaneous
# [13] = system: Rattus norvegicus; test: % change in blood glucose concentration after 2 hr post treatment at 50 mg/kg, po; assay type: functional
# [14] = system: Mus musculus; test: Analgesic activity in mice using phenylquinone writhing test at 0.00075 mg/kg, sc dose; assay type: functional; details: route subcutaneous
# [15] = system: Rattus norvegicus; test: % change in blood glucose concentration after 4 hr post treatment at 60 mg/kg, po; assay type: functional
# [16] = system: Mus musculus; test: Analgesic activity in mice using phenylquinone writhing test at 3 mg/kg, sc dose. 0.6 mg/kg Noxolone was prior to compound injection; assay type: functional
# [17] = system: Mus musculus; test: Analgesic activity in mice using phenylquinone writhing test at 3mg/kg, sc dose; assay type: functional
# [18] = system: Mus musculus; test: Effective dose in mouse hotplate test at 55+/-0.5 degree Centigrade after 30 min of dosing; assay type: functional; details: 0.5 h
# [19] = system: Mus musculus; test: Inhibitory against carrageenan induced paw edema in mice at 128 mg/kg, sc dose after 5 hr; assay type: functional; details: route subcutaneous
# [20] = system: Mus musculus; test: Inhibitory against carrageenan induced paw edema in mice at 128 mg/kg, sc dose after 3h; assay type: functional; details: route subcutaneous
# [21] = system: Rattus norvegicus; test: % change in blood glucose concentration after 2 hr post treatment at 128 mg/kg, po; assay type: functional
# [22] = system: Rattus norvegicus; test: % change in blood glucose concentration after 4 hr post treatment at 128 mg/kg, po; assay type: functional
# [23] = system: Mus musculus; test: Analgesic activity in mice using phenylquinone writhing test at 128 mg/kg when administered subcutaneously; assay type: functional; details: sc, route subcutaneous
# [24] = system: Mus musculus; test: Analgesic activity in mice using phenylquinone writhing test at 56 mg/kg, sc dose; assay type: functional; details: route subcutaneous
# [25] = species on record: Mus musculus; test: animal or person; details: sc, read-out: Inhibition
# Description: Analgesic activity in mice using phenylquinone writhing test at 0.038 mg/kg, sc dose
# [26] = system: Rattus norvegicus; test: Inhibitory against carrageenan induced paw edema in rat at 120 mg/kg, sc dose after 5 hr; assay type: functional; details: route subcutaneous
# [27] = system: Mus musculus; test: Analgesic activity in mice using phenylquinone writhing test at 120 mg/kg, sc dose; assay type: functional; details: route subcutaneous
# [28] = system: Rattus norvegicus; test: Inhibitory against carrageenan induced paw edema in rat at 120 mg/kg, sc dose after 3h; assay type: functional; details: route subcutaneous
# [29] = system: Mus musculus; test: Inhibitory against carrageenan induced paw edema in mice at 12 mg/kg, sc dose after 3h; assay type: functional; details: route subcutaneous
# [30] = system: Mus musculus; test: Inhibitory against carrageenan induced paw edema in mice at 12 mg/kg, sc dose after 5 hr; assay type: functional; details: route subcutaneous
# [31] = system: Mus musculus; test: Analgesic activity in mice using phenylquinone writhing test at 50 mg/kg, sc dose; assay type: functional; details: route subcutaneous
# [32] = system: Mus musculus; test: Analgesic activity in mice using phenylquinone writhing test at 16.5 mg/kg, sc dose; assay type: functional; details: route subcutaneous
# [33] = system: Rattus norvegicus; test: % change in blood glucose concentration after 2 hr post treatment at 36.5 mg/kg, po; assay type: functional
# [34] = system: Rattus norvegicus; test: % change in blood glucose concentration after 4 hr post treatment at 53 mg/kg, po; assay type: functional
# [35] = system: Mus musculus; test: Analgesic activity in mice using phenylquinone writhing test at 25 mg/kg, sc dose; assay type: functional; details: route subcutaneous
# [36] = system: Rattus norvegicus; test: % change in blood glucose concentration after 2 hr post treatment at 41 mg/kg, po; assay type: functional
# [37] = system: Mus musculus; test: Analgesic activity in mice using phenylquinone writhing test at 60 mg/kg, sc dose; assay type: functional; details: route subcutaneous
Compound,Hyperglycemic activity [1],inhibition in vivo at 30 mg/kg [2] [%],Hyperglycemic activity [3],further results
CC(=O)NN1CC=CCC1,35,99,36,
O=C(NN1CC=CCC1)c1ccco1,181,99,182,Hyperglycemic activity [4]: 50; inhibition in vivo at 0.0075 mg/kg [5]: 50%; inhibition in vivo at 10 mg/kg [6]: 98.4%; Hyperglycemic activity [7]: 50; Inhibition [8]: 99.2%
O=C(Cc1cccnc1)NN1CC=CCC1,0,,,inhibition in vivo at 128 mg/kg [9]: 50%; inhibition in vivo at 14.5 mg/kg [10]: 50%; Hypoglycemic activity [11]: -6; inhibition in vivo at 128 mg/kg [12]: 50%
O=C(NN1CC=CCC1)C1CCCCCC1,100,98,82,Hyperglycemic activity [13]: 50; inhibition in vivo at 0.00075 mg/kg [14]: 50%; Hyperglycemic activity [15]: 50
O=C(NN1CC=CCC1)C1CCCC1,54,98,22,
CCOC(=O)NN1CC=CCC1,27,99,91,Inhibition [16]: 86%; inhibition in vivo at 3 mg/kg [17]: 85.6%; ED50 [18]: 19.5 mg/kg
O=C(NN1CC=CCC1)C1CC1,66,100,111,
O=C(NN1CC=CCC1)c1cccc[n+]1[O-],,,,inhibition in vivo at 128 mg/kg [19]: 0%; inhibition in vivo at 128 mg/kg [20]: 34%; Hypoglycemic activity [21]: <20; Hypoglycemic activity [22]: <20; inhibition in vivo at 128 mg/kg [23]: 55%
CCC(=O)O[C@](Cc1ccccc1)(c1ccccc1)[C@H](C)CN(C)C [PROPOXYPHENE],,,,inhibition in vivo at 56 mg/kg [24]: 50%
CN1CC[C@]23c4c5ccc(O)c4O[C@H]2[C@@H](O)C=C[C@H]3[C@H]1C5,,,,inhibition in vivo at 0.038 mg/kg [25]: 50%
O=C(CCc1ccccc1)NN1CC=CCC1,27,,25,inhibition in vivo at 120 mg/kg [26]: 83%; inhibition in vivo at 120 mg/kg [27]: 42%; inhibition in vivo at 120 mg/kg [28]: 83%
COc1ccc2c(c1)c(CC(=O)O)c(C)n2C(=O)c1ccc(Cl)cc1 [INDOMETHACIN],,,,inhibition in vivo at 12 mg/kg [29]: 17%; inhibition in vivo at 12 mg/kg [30]: 83%
CC(=O)Oc1ccccc1C(=O)O [ASPIRIN],,,,inhibition in vivo at 50 mg/kg [31]: 50%
O=C(NN1CC=CCC1)c1cccs1,116,77,64,
Cn1cccc1C(=O)NN1CC=CCC1,35,90,25,
O=C(COc1cccc2ccccc12)NN1CC=CCC1,9,76,14,
O=C(NN1CC=CCC1)C1CCCCC1,,,,inhibition in vivo at 120 mg/kg [26]: 84%; inhibition in vivo at 16.5 mg/kg [32]: 50%; Hyperglycemic activity [33]: 50; Hyperglycemic activity [34]: 50; inhibition in vivo at 120 mg/kg [28]: 50%
O=C(COc1ccccc1)NN1CC=CCC1,,,,inhibition in vivo at 25 mg/kg [35]: 50%; inhibition in vivo at 120 mg/kg [26]: 80%; Hyperglycemic activity [34]: 50; inhibition in vivo at 120 mg/kg [28]: 83%; Hyperglycemic activity [36]: 50
CC(C)(C)C(=O)NN1CC=CCC1,70,100,101,
O=C(Cc1ccc2c(c1)OCO2)NN1CC=CCC1,7,,21,inhibition in vivo at 120 mg/kg [26]: 0%; inhibition in vivo at 60 mg/kg [37]: 80%; inhibition in vivo at 120 mg/kg [28]: 0%
O=C(NN1CC=CCC1)c1cccc(C(=O)NN2CC=CCC2)n1,-8,60,10,
O=C(NN1CC=CCC1)C12C[C@H]3C[C@@H](C1)C[C@@H](C2)C3,33,86,22,

# From ChEMBL document CHEMBL1122011, “Synthesis of N-(carbonylamino)-1,2,3,6-tetrahydropyridines with analgesic, antiinflammatory, and hyperglycemic activity” (J Med Chem, 1982)
